# Data from the Kinase Knowledgebase extract (Sharma et al. 2016).
# How the values were obtained:
# PIK3CG (human) = PIK3CG (human) (UniProt P48736); assay: Assessment of PIK3CG Kinase Binding Activity
# PIK3CB (Human) = PIK3CB (Human) (UniProt P42338); assay: Assessment of PIK3CB Kinase Binding Activity
# PIK3CA (human) [1] = target: PIK3CA (human) (UniProt P42336); assay: Assessment of PIK3CA Kinase Binding Activity
# PIK3CD (Human) = PIK3CD (Human) (UniProt O00329); assay: Assessment of PIK3CD Kinase Binding Activity
# Sequence of PIK3CD (Human) (O00329 whole entry, looked up): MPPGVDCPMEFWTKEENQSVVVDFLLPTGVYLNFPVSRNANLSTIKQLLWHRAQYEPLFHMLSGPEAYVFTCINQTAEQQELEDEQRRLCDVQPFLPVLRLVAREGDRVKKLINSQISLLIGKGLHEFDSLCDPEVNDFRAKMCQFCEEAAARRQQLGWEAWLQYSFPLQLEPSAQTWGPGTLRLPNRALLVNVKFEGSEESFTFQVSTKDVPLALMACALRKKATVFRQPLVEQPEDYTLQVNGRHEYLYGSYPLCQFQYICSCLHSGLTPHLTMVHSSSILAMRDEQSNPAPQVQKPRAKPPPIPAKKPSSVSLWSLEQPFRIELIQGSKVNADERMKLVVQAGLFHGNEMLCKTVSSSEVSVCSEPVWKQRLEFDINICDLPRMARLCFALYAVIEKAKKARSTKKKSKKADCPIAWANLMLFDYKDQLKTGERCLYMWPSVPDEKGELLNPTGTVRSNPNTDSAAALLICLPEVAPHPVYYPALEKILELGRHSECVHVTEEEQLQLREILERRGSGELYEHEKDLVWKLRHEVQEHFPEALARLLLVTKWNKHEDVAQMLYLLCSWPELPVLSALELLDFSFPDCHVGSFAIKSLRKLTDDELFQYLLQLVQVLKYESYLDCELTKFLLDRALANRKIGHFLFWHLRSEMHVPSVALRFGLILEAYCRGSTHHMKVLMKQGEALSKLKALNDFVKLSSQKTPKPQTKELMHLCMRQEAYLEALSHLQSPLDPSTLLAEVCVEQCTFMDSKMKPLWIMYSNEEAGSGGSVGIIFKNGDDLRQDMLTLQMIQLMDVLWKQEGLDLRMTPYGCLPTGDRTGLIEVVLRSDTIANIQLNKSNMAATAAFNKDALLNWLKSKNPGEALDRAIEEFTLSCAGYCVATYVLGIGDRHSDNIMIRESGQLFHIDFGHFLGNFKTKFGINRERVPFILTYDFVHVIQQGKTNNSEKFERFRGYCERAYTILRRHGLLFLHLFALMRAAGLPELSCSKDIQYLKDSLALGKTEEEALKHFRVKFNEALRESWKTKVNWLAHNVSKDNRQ
# PIK3CA (human) [2] = target: PIK3CA (human) (UniProt P42336); assay: Inhibition of A2780 Cell Proliferation
# PIK3CA (human) [3] = target: PIK3CA (human) (UniProt P42336); assay: Inhibition of PIK3CA Kinase Activity
# Sequence of PIK3CA (human) (P42336 whole entry, looked up): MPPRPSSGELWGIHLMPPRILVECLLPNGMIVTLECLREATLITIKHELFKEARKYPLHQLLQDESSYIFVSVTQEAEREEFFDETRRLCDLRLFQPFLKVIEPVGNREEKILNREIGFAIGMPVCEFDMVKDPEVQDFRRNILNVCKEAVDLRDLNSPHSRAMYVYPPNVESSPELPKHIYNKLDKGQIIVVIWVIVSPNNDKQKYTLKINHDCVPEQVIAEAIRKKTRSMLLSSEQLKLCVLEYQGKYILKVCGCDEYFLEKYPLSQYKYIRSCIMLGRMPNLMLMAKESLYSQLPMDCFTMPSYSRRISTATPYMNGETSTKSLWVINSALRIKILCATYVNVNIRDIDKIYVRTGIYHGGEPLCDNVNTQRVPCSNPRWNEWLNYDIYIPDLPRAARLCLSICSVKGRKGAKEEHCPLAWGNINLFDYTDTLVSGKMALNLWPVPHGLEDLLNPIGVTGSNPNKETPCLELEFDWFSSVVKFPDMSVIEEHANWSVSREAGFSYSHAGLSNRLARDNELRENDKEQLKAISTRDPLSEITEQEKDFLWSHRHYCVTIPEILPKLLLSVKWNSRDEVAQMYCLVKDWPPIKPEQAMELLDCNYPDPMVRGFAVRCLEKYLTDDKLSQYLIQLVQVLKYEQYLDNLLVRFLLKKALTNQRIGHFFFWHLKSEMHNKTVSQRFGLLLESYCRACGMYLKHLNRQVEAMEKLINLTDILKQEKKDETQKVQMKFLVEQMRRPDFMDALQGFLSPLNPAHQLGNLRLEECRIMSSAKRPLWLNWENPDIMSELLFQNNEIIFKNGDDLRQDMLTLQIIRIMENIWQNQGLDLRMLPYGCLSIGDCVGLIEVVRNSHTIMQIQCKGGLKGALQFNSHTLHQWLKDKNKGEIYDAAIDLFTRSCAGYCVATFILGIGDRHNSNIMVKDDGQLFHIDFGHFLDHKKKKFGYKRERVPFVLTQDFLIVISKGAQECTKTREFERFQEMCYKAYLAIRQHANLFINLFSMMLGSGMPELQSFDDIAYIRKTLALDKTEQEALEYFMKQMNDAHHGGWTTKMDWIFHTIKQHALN
# Sequence of PIK3CG (human) (P48736 whole entry, looked up): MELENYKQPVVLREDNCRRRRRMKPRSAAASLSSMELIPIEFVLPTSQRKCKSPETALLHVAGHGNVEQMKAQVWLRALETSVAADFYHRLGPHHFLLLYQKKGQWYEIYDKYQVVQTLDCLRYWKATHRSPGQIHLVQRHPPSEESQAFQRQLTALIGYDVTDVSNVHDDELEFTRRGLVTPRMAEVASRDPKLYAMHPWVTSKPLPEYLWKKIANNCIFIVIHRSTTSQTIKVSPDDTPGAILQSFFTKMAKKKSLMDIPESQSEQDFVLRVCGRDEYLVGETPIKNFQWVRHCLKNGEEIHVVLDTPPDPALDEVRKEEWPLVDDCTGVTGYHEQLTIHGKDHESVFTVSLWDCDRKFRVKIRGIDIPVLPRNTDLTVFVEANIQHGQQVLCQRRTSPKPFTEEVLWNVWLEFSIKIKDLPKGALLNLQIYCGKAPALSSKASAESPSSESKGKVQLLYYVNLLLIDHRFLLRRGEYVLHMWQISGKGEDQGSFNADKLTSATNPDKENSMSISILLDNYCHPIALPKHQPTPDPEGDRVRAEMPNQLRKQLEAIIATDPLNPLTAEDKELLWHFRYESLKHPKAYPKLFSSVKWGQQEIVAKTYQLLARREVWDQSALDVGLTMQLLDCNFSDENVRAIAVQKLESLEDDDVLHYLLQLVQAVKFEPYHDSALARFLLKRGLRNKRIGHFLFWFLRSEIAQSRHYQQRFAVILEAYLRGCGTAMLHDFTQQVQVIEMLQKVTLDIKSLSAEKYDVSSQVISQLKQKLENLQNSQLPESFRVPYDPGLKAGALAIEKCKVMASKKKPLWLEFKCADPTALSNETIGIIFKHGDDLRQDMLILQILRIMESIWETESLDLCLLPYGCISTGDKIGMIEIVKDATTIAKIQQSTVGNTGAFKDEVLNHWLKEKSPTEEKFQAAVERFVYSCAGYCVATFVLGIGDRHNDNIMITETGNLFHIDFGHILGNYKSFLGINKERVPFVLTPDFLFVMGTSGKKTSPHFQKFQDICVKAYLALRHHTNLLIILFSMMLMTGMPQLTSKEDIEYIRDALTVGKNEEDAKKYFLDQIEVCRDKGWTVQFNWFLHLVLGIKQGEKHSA
# Sequence of PIK3CB (Human) (P42338 whole entry, looked up): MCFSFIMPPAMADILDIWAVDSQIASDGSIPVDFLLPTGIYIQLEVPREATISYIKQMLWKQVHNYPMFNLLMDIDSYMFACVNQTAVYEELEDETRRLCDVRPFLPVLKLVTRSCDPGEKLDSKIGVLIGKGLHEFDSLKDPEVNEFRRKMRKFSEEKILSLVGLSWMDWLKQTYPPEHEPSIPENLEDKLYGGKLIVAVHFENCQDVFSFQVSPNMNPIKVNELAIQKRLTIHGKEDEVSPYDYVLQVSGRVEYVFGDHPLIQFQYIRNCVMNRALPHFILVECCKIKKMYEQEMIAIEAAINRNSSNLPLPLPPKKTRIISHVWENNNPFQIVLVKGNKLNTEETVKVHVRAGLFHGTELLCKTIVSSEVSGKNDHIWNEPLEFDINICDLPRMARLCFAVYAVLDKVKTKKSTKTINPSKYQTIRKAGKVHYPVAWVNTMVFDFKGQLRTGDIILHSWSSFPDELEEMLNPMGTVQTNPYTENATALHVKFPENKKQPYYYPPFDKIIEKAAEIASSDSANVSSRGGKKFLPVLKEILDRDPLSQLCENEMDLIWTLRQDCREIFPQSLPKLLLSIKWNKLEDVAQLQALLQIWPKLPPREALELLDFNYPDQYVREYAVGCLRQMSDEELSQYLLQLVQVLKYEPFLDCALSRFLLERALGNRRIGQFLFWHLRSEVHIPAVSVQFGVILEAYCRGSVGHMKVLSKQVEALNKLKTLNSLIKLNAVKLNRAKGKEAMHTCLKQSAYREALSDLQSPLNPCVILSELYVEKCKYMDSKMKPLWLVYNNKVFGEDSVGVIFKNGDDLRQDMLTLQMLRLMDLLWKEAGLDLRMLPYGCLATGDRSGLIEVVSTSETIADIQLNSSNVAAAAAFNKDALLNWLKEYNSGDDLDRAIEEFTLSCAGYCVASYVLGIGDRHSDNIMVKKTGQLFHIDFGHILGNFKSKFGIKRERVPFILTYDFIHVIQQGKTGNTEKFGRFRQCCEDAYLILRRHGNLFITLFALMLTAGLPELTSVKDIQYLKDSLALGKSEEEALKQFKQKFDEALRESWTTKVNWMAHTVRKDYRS
SMILES,Ki (PIK3CG (human)) [nM],Ki (PIK3CB (Human)) [nM],Ki (PIK3CA (human) [1]) [nM],Ki (PIK3CD (Human)) [nM],EC50 (PIK3CA (human) [2]) [nM],IC50 (PIK3CA (human) [3]) [nM]
CC(C)n1nnc(CCNC(=O)Nc2cn3cc(-c4cnc(N)c(C(F)(F)F)c4)ccc3n2)n1,< 1000,< 1000,< 1000,< 1000,,
CCc1nnn(CCNC(=O)Nc2cn3cc(-c4cnc(N)c(C(F)(F)F)c4)ccc3n2)n1,< 1000,< 1000,< 1000,< 1000,,
CCc1cnc(CCNC(=O)Nc2cn3cc(-c4cnc(N)c(C(F)(F)F)c4)ccc3n2)o1,< 1000,< 1000,< 1000,< 1000,,
CC(C)n1nnc(CCNC(=O)Nc2cn3cc(-c4ccc(N)nc4)ccc3n2)n1,< 1000,< 1000,< 10000,< 1000,,
CCn1nnc(CCNC(=O)Nc2cn3cc(-c4cnc(N)c(C(F)(F)F)c4)ccc3n2)n1,< 1000,< 1000,< 1000,< 1000,,
Nc1ncc(-c2ccc3nc(NC(=O)NCCn4nnc(C5CC5)n4)cn3c2)cc1C(F)(F)F,< 1000,< 1000,< 1000,< 1000,,
Nc1ncc(-c2ccc3nc(NC(=O)CCCn4ccnc4)cn3c2)cc1C(F)(F)F,,,,,< 10000,< 1000
C/C=C/c1c(NC(C)=O)nc2ccc(-c3cnc(N)c(C(F)(F)F)c3)cn12,,,,,< 10000,< 1000
Nc1ncc(-c2ccc3nc(NC(=O)[C@@H]4CCCCN4Cc4ccccc4)cn3c2)cc1C(F)(F)F,,,,,< 10000,< 1000
CC(=O)Nc1cn2cc(-c3cnc(N)c(-c4ccccc4F)c3)ccc2n1,,,,,< 10000,< 1000
COC(=O)CCCC(=O)Nc1cn2nc(-c3cnc(N)c(C(F)(F)F)c3)ccc2n1,,,,,< 10000,< 1000
CNC(=O)c1ccc(-c2c(NC(C)=O)nc3ccc(-c4cnc(N)c(C(F)(F)F)c4)cn23)cc1,,,,,< 25000,< 1000
CC(=O)Nc1nc2ccc(-c3cnc(N)c(C(F)(F)F)c3)cn2c1C#CCNC(=O)OC(C)(C)C,,,,,< 10000,< 1000
Nc1ncc(-c2ccc3nc(NC(=O)N4CCCC4C(F)(F)F)cn3c2)cc1C(F)(F)F (configuration not stated),,,,,< 10000,< 1000
CC(C)(C)OC(=O)NCC(=O)Nc1cn2cc(-c3cnc(N)c(C(F)(F)F)c3)ccc2n1,,,,,< 10000,< 1000
CCN(CC)CCOc1cc(-c2ccc3nc(NC(C)=O)cn3c2)cnc1N,,,,,< 25000,< 10000
CC(=O)Nc1cn2cc(-c3cnc(N)c(Oc4cccnc4)n3)ccc2n1,,,,,< 1000,< 1000
CC(=O)Nc1cn2cc(-c3cnc(N)c(C#N)c3)ccc2n1,,,,,< 10000,< 1000

SMILES,Ki (PIK3CG (human)) [nM],Ki (PIK3CB (Human)) [nM],Ki (PIK3CA (human) [1]) [nM],Ki (PIK3CD (Human)) [nM],EC50 (PIK3CA (human) [2]) [nM],IC50 (PIK3CA (human) [3]) [nM]
Nc1ncc(-c2ccc3nc(NC(=O)CCCN4CCOCC4)cn3c2)cc1C(F)(F)F,,,,,< 10000,< 1000
CCCc1c(NC(C)=O)nc2ccc(-c3cnc(N)c(C(F)(F)F)c3)cn12,,,,,< 25000,< 1000
Nc1ncc(-c2ccc3nc(NC(=O)c4ccncc4)cn3c2)cc1C(F)(F)F,,,,,< 25000,< 1000
CC(=O)Nc1nc2ccc(-c3cnc(N)c(C(F)(F)F)c3)cn2c1C#Cc1ccc(C)cc1,,,,,< 10000,< 1000
Nc1ncc(-c2ccc3nc(NC(=O)Cc4ccccn4)cn3c2)cc1C(F)(F)F,,,,,< 10000,< 1000
C[C@@H](NC(=O)OC(C)(C)C)C(=O)Nc1cn2nc(-c3cnc(N)c(C(F)(F)F)c3)ccc2n1,,,,,< 10000,< 1000
CC(=O)Nc1cn2nc(-c3cnc(N)c(-c4ccccc4C(F)(F)F)c3)ccc2n1,,,,,< 1000,< 1000
CCN1CCCCC1CCC(=O)Nc1cn2nc(-c3cnc(N)c(C(F)(F)F)c3)ccc2n1 (configuration not stated),,,,,< 1000,< 1000
CCC(=O)Nc1cn2nc(-c3cnc(N)c(C(F)(F)F)c3)ccc2n1,,,,,< 1000,< 1000
CC(=O)Nc1nc2ccc(-c3cnc(N)c(C(F)(F)F)c3)cn2c1C#Cc1cccnc1,,,,,< 1000,< 1000
CC(=O)Nc1cn2cc(-c3cnc(N)c(-c4ccccc4OC(F)(F)F)c3)ccc2n1,,,,,< 10000,< 1000
CNC(=O)[C@@H]1CCN1C(=O)Nc1cn2cc(-c3cnc(N)c(C(F)(F)F)c3)ccc2n1,,,,,< 25000,< 25000
COc1nc(-c2ccc3nc(NC(C)=O)cn3n2)cnc1N,,,,,< 10000,< 1000
CC(=O)Nc1cn2nc(-c3cnc(N)c(C(=O)NCCNS(C)(=O)=O)c3)ccc2n1,,,,,< 25000,< 1000
COCCOc1nc(-c2ccc3nc(NC(C)=O)sc3c2)cnc1N,,,,,< 10000,< 1000
Nc1ncc(-c2ccc3nc(NC(=O)C4CCN4)cn3c2)nc1OCC(F)(F)F (configuration not stated),,,,,< 10000,< 1000
CC(=O)Nc1cn2cc(-c3ccc(N)nc3C)ccc2n1,,,,,< 25000,< 1000
